Measurements: patent US4643987A, “Modified glycopeptides” (Eli Lilly and Company, priority 1985, dated 1987)
Values after ≈ are worked out from the molar mass of the structure shown.

Assays:
[1] = system: Streptococcus pneumoniae Park 1; format: cell-based; conditions: agar dilution
[2] = system: Streptococcus pyrogenes C203; assay: agar-dilution MIC; format: cell-based
[3] = system: Staphylococcus aureus S13E; format: cell-based; conditions: agar dilution
[4] = system: Streptococcus sp. group D 2041; assay: agar-dilution MIC; format: cell-based
[5] = system: Haemophilus influenzae C.L.; assay: agar-dilution MIC; format: cell-based
[6] = system: Staphylococcus epidermidis EP11; assay: agar-dilution MIC; format: cell-based
[7] = system: Staphylococcus aureus X400; assay: agar-dilution MIC; format: cell-based
[8] = system: Haemophilus influenzae 76; assay: agar-dilution MIC; format: cell-based
[9] = system: Staphylococcus epidermidis 222; assay: agar-dilution MIC; format: cell-based
[10] = system: Streptococcus faecium ATCC 9790; assay: agar-dilution MIC; format: cell-based
[11] = system: Staphylococcus aureus NRRL B313; assay: agar-dilution MIC; format: cell-based
[12] = system: Staphylococcus aureus V41; assay: agar-dilution MIC; format: cell-based
Streptococcus pyogenes = assay: experimental bacterial infection in mice, ED50; format: in vivo; conditions: two doses, subcutaneously
Method: (§1) Some of the compounds of this invention have also shown in vivo antimicrobial activity against experimental bacterial infections. When two doses of test compound were administered to mice in experimental infections, the activity observed was measured as an ED50 value [effective dose in mg/kg to protect 50% of the test animals: see Warren Wick, et al., J. Bacteriol. 81, 233-235 (1961)].

Streptococcus pneumoniae = assay: experimental bacterial infection in mice, ED50; format: in vivo; conditions: two doses, subcutaneously
Method: as §1

Staphylococcus aureus = assay: experimental bacterial infection in mice, ED50; format: in vivo; conditions: two doses, subcutaneously
Method: as §1

Row | Compound | MIC [1] [µg/mL] | MIC [2] [µg/mL] | MIC [3] [µg/mL] | MIC [4] [µg/mL] | MIC [5] | MIC [6] [µg/mL] | MIC [7] [µg/mL] | MIC [8] | MIC [9] [µg/mL] | MIC [10] [µg/mL] | MIC [11] [µg/mL] | MIC [12] [µg/mL] | ED50 (Streptococcus pyogenes) | ED50 (Streptococcus pneumoniae) | ED50 (Staphylococcus aureus)
1 | CCCCCCCCOc1ccc(C(=O)N[C@@]2(C)C[C@H](O[C@H]3[C@H](Oc4c5cc6cc4Oc4ccc(cc4Cl)[C@@H](O)[C@@H](NC(=O)[C@@H](CC(C)C)NC)C(=O)N[C@@H](CC(N)=O)C(=O)N[C@H]6C(=O)N[C@H]4C(=O)N[C@H](C(=O)N[C@H](C(=O)O)c6cc(O)cc(O)c6-c6cc4ccc6O)[C@H](O)c4ccc(c(Cl)c4)O5)O[C@H](CO)[C@@H](O)[C@@H]3O)O[C@@H](C)[C@H]2O)cc1 [Compound 1, N^van --[4-(n-octyloxy)benzoyl]vancomycin] | 2 (≈ 1.19 µM) | 2 (≈ 1.19 µM) | 1 (≈ 0.595 µM) | 1 (≈ 0.595 µM) | -- (-- = not active at 128 mcg/ml) | 16 (≈ 9.51 µM) | 2 (≈ 1.19 µM) | -- (-- = not active at 128 mcg/ml) | 4 (≈ 2.38 µM) | 0.5 (≈ 0.297 µM) | 1 (≈ 0.595 µM) | 1 (≈ 0.595 µM) | – | – | –
2 | CCCCCCCCc1ccc(C(=O)N[C@@]2(C)C[C@H](O[C@H]3[C@H](Oc4c5cc6cc4Oc4ccc(cc4Cl)[C@@H](O)[C@@H](NC(=O)[C@@H](CC(C)C)NC)C(=O)N[C@@H](CC(N)=O)C(=O)N[C@H]6C(=O)N[C@H]4C(=O)N[C@H](C(=O)N[C@H](C(=O)O)c6cc(O)cc(O)c6-c6cc4ccc6O)[C@H](O)c4ccc(c(Cl)c4)O5)O[C@H](CO)[C@@H](O)[C@@H]3O)O[C@@H](C)[C@H]2O)cc1 [Compound 2, N^van --[4-(n-octyl)benzoyl]vancomycin] | 0.5 (≈ 0.3 µM) | 0.25 (≈ 0.15 µM) | 0.5 (≈ 0.3 µM) | 0.125 (≈ 0.075 µM) | -- (-- = not active at 128 mcg/ml) | 8 (≈ 4.8 µM) | 0.5 (≈ 0.3 µM) | -- (-- = not active at 128 mcg/ml) | 1 (≈ 0.6 µM) | 0.125 (≈ 0.075 µM) | 0.5 (≈ 0.3 µM) | 0.5 (≈ 0.3 µM) | 1.0 mg/kg/2 | 0.72 mg/kg/2 | 3.78 mg/kg/2
3 | CCCCCCCCc1ccc(C(=O)N(C)C(CC(C)C)C(=O)NC2C(=O)NC(CC(N)=O)C(=O)NC3C(=O)NC4C(=O)NC(C(=O)NC(C(=O)O)c5cc(O)cc(O)c5-c5cc4ccc5O)C(O)c4ccc(c(Cl)c4)Oc4cc3cc(c4OC3OC(CO)C(O)C(O)C3OC3CC(C)(N)C(O)C(C)O3)Oc3ccc(cc3Cl)C2O)cc1 (stereo not drawn) [Compound 3, N^leu --[4-(n-octyl)benzoyl]vancomycin] | 1 (≈ 0.6 µM) | 1 (≈ 0.6 µM) | 2 (≈ 1.2 µM) | 1 (≈ 0.6 µM) | 128 µg/mL (≈ 76.8 µM) | 16 (≈ 9.61 µM) | 2 (≈ 1.2 µM) | 64 µg/mL (≈ 38.4 µM) | 2 (≈ 1.2 µM) | 1 (≈ 0.6 µM) | 2 (≈ 1.2 µM) | 2 (≈ 1.2 µM) | – | – | –
4 | CN[C@H](CC(C)C)C(=O)N[C@H]1C(=O)N[C@@H](CC(N)=O)C(=O)N[C@H]2C(=O)N[C@H]3C(=O)N[C@H](C(=O)N[C@H](C(=O)O)c4cc(O)cc(O)c4-c4cc3ccc4O)[C@H](O)c3ccc(c(Cl)c3)Oc3cc2cc(c3O[C@@H]2O[C@H](CO)[C@@H](O)[C@H](O)[C@H]2O[C@H]2C[C@](C)(NC(=O)c3ccc(OC)cc3)[C@H](O)[C@H](C)O2)Oc2ccc(cc2Cl)[C@H]1O [Compound 4, N^van --(4-methoxybenzoyl)vancomycin] | 0.5 (≈ 0.316 µM) | 1 (≈ 0.632 µM) | 2 (≈ 1.26 µM) | 8 (≈ 5.05 µM) | 128 µg/mL (≈ 80.8 µM) | 8 (≈ 5.05 µM) | 2 (≈ 1.26 µM) | 128 µg/mL (≈ 80.8 µM) | 2 (≈ 1.26 µM) | 2 (≈ 1.26 µM) | 2 (≈ 1.26 µM) | 2 (≈ 1.26 µM) | – | – | –
5 | CN[C@H](CC(C)C)C(=O)N[C@H]1C(=O)N[C@@H](CC(N)=O)C(=O)N[C@H]2C(=O)N[C@H]3C(=O)N[C@H](C(=O)N[C@H](C(=O)O)c4cc(O)cc(O)c4-c4cc3ccc4O)[C@H](O)c3ccc(c(Cl)c3)Oc3cc2cc(c3O[C@@H]2O[C@H](CO)[C@@H](O)[C@H](O)[C@H]2O[C@H]2C[C@](C)(NC(=O)CC(C)Oc3ccccc3)[C@H](O)[C@H](C)O2)Oc2ccc(cc2Cl)[C@H]1O (stereo partly drawn) [Compound 6, N^van --(1-oxo-3-phenoxy-n-butyl)vancomycin] | 1 (≈ 0.621 µM) | 1 (≈ 0.621 µM) | 2 (≈ 1.24 µM) | 4 (≈ 2.48 µM) | -- (-- = not active at 128 mcg/ml) | 8 (≈ 4.96 µM) | 2 (≈ 1.24 µM) | -- (-- = not active at 128 mcg/ml) | 2 (≈ 1.24 µM) | 2 (≈ 1.24 µM) | 1 (≈ 0.621 µM) | 2 (≈ 1.24 µM) | 3.2 mg/kg/2 | 1.8 mg/kg/2 | 3.7 mg/kg/2
6 | CN[C@H](CC(C)C)C(=O)N[C@H]1C(=O)N[C@@H](CC(N)=O)C(=O)N[C@H]2C(=O)N[C@H]3C(=O)N[C@H](C(=O)N[C@H](C(=O)O)c4cc(O)cc(O)c4-c4cc3ccc4O)[C@H](O)c3ccc(c(Cl)c3)Oc3cc2cc(c3O[C@@H]2O[C@H](CO)[C@@H](O)[C@H](O)[C@H]2O[C@H]2C[C@](C)(NC(=O)CC(C)c3cccs3)[C@H](O)[C@H](C)O2)Oc2ccc(cc2Cl)[C@H]1O (stereo partly drawn) [Compound 7, N^van --[1-oxo-3-(2-thienyl)-n-butyl]vancomycin] | 0.5 (≈ 0.312 µM) | 1 (≈ 0.624 µM) | 2 (≈ 1.25 µM) | 4 (≈ 2.5 µM) | -- (-- = not active at 128 mcg/ml) | 8 (≈ 5 µM) | 1 (≈ 0.624 µM) | 128 µg/mL (≈ 79.9 µM) | 2 (≈ 1.25 µM) | 2 (≈ 1.25 µM) | 1 (≈ 0.624 µM) | 1 (≈ 0.624 µM) | 3.38 mg/kg/2 | 2.3 mg/kg/2 | 3.05 mg/kg/2
7 | CC(C)C[C@H](C(=O)N[C@H]1C(=O)N[C@@H](CC(N)=O)C(=O)N[C@H]2C(=O)N[C@H]3C(=O)N[C@H](C(=O)N[C@H](C(=O)O)c4cc(O)cc(O)c4-c4cc3ccc4O)[C@H](O)c3ccc(c(Cl)c3)Oc3cc2cc(c3O[C@@H]2O[C@H](CO)[C@@H](O)[C@H](O)[C@H]2O[C@H]2C[C@](C)(NC(=O)CSc3ccccc3)[C@H](O)[C@H](C)O2)Oc2ccc(cc2Cl)[C@H]1O)N(C)C(=O)CSc1ccccc1 [Compound 12, N^van,N^leu-di-[1-oxo-2-(phenylthio)ethyl]vancomycin] | 8 (≈ 4.57 µM) | 8 (≈ 4.57 µM) | 32 (≈ 18.3 µM) | 64 (≈ 36.6 µM) | -- (-- = not active at 128 mcg/ml) | 128 (≈ 73.2 µM) | 32 (≈ 18.3 µM) | -- (-- = not active at 128 mcg/ml) | 64 (≈ 36.6 µM) | 32 (≈ 18.3 µM) | 16 (≈ 9.14 µM) | 16 (≈ 9.14 µM) | – | – | –
8 | CN[C@H](CC(C)C)C(=O)N[C@H]1C(=O)N[C@@H](CC(N)=O)C(=O)N[C@H]2C(=O)N[C@H]3C(=O)N[C@H](C(=O)N[C@H](C(=O)O)c4cc(O)cc(O)c4-c4cc3ccc4O)[C@H](O)c3ccc(c(Cl)c3)Oc3cc2cc(c3O[C@@H]2O[C@H](CO)[C@@H](O)[C@H](O)[C@H]2O[C@H]2C[C@](C)(N)[C@H](O)[C@H](C)O2)Oc2ccc(cc2Cl)[C@H]1O [vancomycin, Vancomycin, reference compound] | – | – | – | – | – | – | – | – | – | – | – | – | 0.99-1.1 mg/kg/2 | 0.90-0.93 mg/kg/2 | 1.8-3.7 mg/kg/2
9 | N^leu --(4-methoxybenzoyl)vancomycin [Compound 5] | 2 | 2 | 4 | 8 | -- (-- = not active at 128 mcg/ml) | 16 | 4 | -- (-- = not active at 128 mcg/ml) | 4 | 4 | 2 | 2 | – | – | –
10 | N^leu -[1-oxo-2-(phenylthio)ethyl]vancomycin [Compound 11] | 2 | 4 | 4 | 16 | -- (-- = not active at 128 mcg/ml) | 16 | 8 | -- (-- = not active at 128 mcg/ml) | 8 | 8 | 4 | 4 | – | – | –
11 | N^van -[1-oxo-2-(phenylthio)ethyl]vancomycin [Compound 10] | 0.5 | 0.5 | 1 | 4 | 128 µg/mL | 4 | 1 | 32 µg/mL | 2 | 1 | 1 | 1 | 4.45 mg/kg/2 | 1.9 mg/kg/2 | 2.3 mg/kg/2
